From ChEMBL document CHEMBL5537147, “Development of membrane-targeting TPP+-chloramphenicol conjugates to combat methicillin-resistant staphylococcus aureus (MRSA) infections” (Eur J Med Chem, 2024)
Active and inactive are the calls of the source. The rule behind the calls is not given here.

Assays:
[1] = tested on: Staphylococcus aureus; assay: Antibacterial activity against methicillin-resistant Staphylococcus aureus 3392 assessed as inhibition of bacterial growth incubated for 16 to 18 hrs by CLSI based two-fold serial dilution method; assay type: functional; settings: time 16-18 hrs
[2] = tested on: Acinetobacter baumannii; assay: Antibacterial activity against Acinetobacter baumannii 1309 assessed as inhibition of bacterial growth incubated for 16 to 18 hrs by CLSI based two-fold serial dilution method; assay type: functional; settings: time 16-18 hrs
[3] = tested on: Staphylococcus aureus; assay: Antibacterial activity against methicillin-resistant Staphylococcus aureus 330041 assessed as inhibition of bacterial growth incubated for 16 to 18 hrs by CLSI based two-fold serial dilution method; assay type: functional; settings: time 16-18 hrs
[4] = tested on: Pseudomonas aeruginosa; assay: Antibacterial activity against Pseudomonas aeruginosa 408 assessed as inhibition of bacterial growth incubated for 16 to 18 hrs by CLSI based two-fold serial dilution method; assay type: functional; settings: time 16-18 hrs
[5] = tested on: Staphylococcus aureus; assay: Antibacterial activity against methicillin-resistant Staphylococcus aureus 3390 assessed as inhibition of bacterial growth incubated for 16 to 18 hrs by CLSI based two-fold serial dilution method; assay type: functional; settings: time 16-18 hrs
[6] = Toxicity in ICR mouse infected with methicillin-resistant Staphylococcus aureus USA300 assessed as reduction in body weight at 20 mg/kg, sc administered as dual dose and measured after 3 days; assay type: organism-based; settings: in vivo, 72 h, time 3 day
[7] = Cytotoxicity against human L02 cells assessed as inhibition of cell growth incubated for 24 hrs by MTT assay; assay type: toxicity, cell-based
[8] = tested on: Pseudomonas aeruginosa; assay: Antibacterial activity against Pseudomonas aeruginosa 535 assessed as inhibition of bacterial growth incubated for 16 to 18 hrs by CLSI based two-fold serial dilution method; assay type: functional; settings: time 16-18 hrs
[9] = tested on: Acinetobacter baumannii; assay: Antibacterial activity against Acinetobacter baumannii 1310 assessed as inhibition of bacterial growth incubated for 16 to 18 hrs by CLSI based two-fold serial dilution method; assay type: functional; settings: time 16-18 hrs
[10] = tested on: Staphylococcus aureus; assay: Antibacterial activity against methicillin-resistant Staphylococcus aureus USA300 assessed as inhibition of bacterial growth incubated for 16 to 18 hrs by CLSI based two-fold serial dilution method; assay type: functional; settings: time 16-18 hrs
[11] = tested on: Staphylococcus aureus; assay: Antibacterial activity against methicillin-resistant Staphylococcus aureus USA300 infected in ICR mouse assessed as reduction in bacterial load in infected thigh at 10 mg/kg, sc pre-infected with bacteria for 2 hrs followed by compound administration as dual dose and measured after 3 days; assay type: functional, organism-based; settings: time 3.0 day
[12] = tested on: Cell membrane; assay: Induction of cell membrane damage in methicillin-resistant Staphylococcus aureus USA300 assessed as disruption of cell membrane at 8 ug/ml measured after 0.5 hrs by SEM analysis; assay type: cell membranes; settings: dose 8.0 µg/ml
[13] = tested on: Erythrocyte; assay: Hemolytic activity in sheep RBC at 20 ug/ml incubated for 1 hr by absorbance based analysis; assay type: toxicity, cell-based, Ovis aries; settings: dose 20 µg/ml
[14] = tested on: Cell membrane; assay: Induction of cell membrane damage in methicillin-resistant Staphylococcus aureus USA300 assessed as appearance of wrinkles in cell surface at 8 ug/ml measured after 0.5 hrs by SEM analysis; assay type: cell membranes; settings: dose 8.0 µg/ml
[15] = tested on: Cell membrane; assay: Disruption of cell membrane integrity in methicillin-resistant Staphylococcus aureus USA300 assessed as increase in fluorescence intensity measured after 0 to 100 mins by SYTOX Green staining based analysis; assay type: cell membranes; settings: dose 2-32 µg/ml, time 0-100 min
[16] = tested on: Staphylococcus aureus; assay: Resistance development in methicillin-resistant Staphylococcus aureus USA300 assessed as increase in MIC measured after 15 passages; assay type: functional, organism-based
[17] = tested on: HEK-293T; assay: Cytotoxicity against HEK293T cells assessed as effect on cell viability at 35 ug/ml incubated for 24 hrs by MTT assay; assay type: toxicity, cell-based; settings: human, dose 35 µg/ml
[18] = tested on: Staphylococcus aureus; assay: Bactericidal against methicillin-resistant Staphylococcus aureus USA300 assessed as reduction in bacterial colonies at 32 ug/ml measured upto 7 hrs by time kill assay; assay type: functional, organism-based; settings: dose 32.0 µg/ml
[19] = tested on: Staphylococcus aureus; assay: Antibacterial activity against methicillin-resistant Staphylococcus aureus USA300 infected in ICR mouse assessed as reduction in bacterial load in infected thigh at 20 mg/kg, sc pre-infected with bacteria for 2 hrs followed by compound administration as dual dose and measured after 3 days; assay type: functional, organism-based; settings: time 3.0 day
[20] = tested on: Staphylococcus aureus; assay: Bactericidal against methicillin-resistant Staphylococcus aureus USA300 assessed as elimination of bacterial colonies at 16 ug/ml measured within 3 hrs by time kill assay relative to control; assay type: functional; settings: dose 16 µg/ml
[21] = tested on: Staphylococcus aureus; assay: Bactericidal against methicillin-resistant Staphylococcus aureus USA300 assessed as total eradication of bacterial colonies at 1 to 2 times MIC measured upto 7 hrs by time kill assay; assay type: functional, organism-based

Row | SMILES | MIC [1] | MIC [2] | MIC [3] | MIC [4] | MIC [5] | IC50 at 24 h [7] | MIC [8] | MIC [9] | MIC [10] | further results
1 | O=C(N[C@H](CO)[C@H](O)c1ccc([N+](=O)[O-])cc1)C(Cl)Cl [CHLORAMPHENICOL] | > 64 µg/mL | > 64 µg/mL | > 64 µg/mL | > 64 µg/mL | > 64 µg/mL | > 64 µg/mL | > 64 µg/mL | > 64 µg/mL | > 64 µg/mL | Activity [6]: Non-Toxic; Activity [11]: inactive
2 | CN[C@H](CC(C)C)C(=O)N[C@H]1C(=O)N[C@@H](CC(N)=O)C(=O)N[C@H]2C(=O)N[C@H]3C(=O)N[C@H](C(=O)N[C@H](C(=O)O)c4cc(O)cc(O)c4-c4cc3ccc4O)[C@H](O)c3ccc(c(Cl)c3)Oc3cc2cc(c3O[C@@H]2O[C@H](CO)[C@@H](O)[C@H](O)[C@H]2O[C@H]2C[C@](C)(N)[C@H](O)[C@H](C)O2)Oc2ccc(cc2Cl)[C@H]1O [VANCOMYCIN] |  | > 64 µg/mL |  | > 64 µg/mL |  | > 64 µg/mL | > 64 µg/mL | > 64 µg/mL |  | Activity [6]: Non-Toxic
3 | Br.O=C(CC[P+](c1ccccc1)(c1ccccc1)c1ccccc1)OC[C@H](NC(=O)C(Cl)Cl)[C@H](O)c1ccc([N+](=O)[O-])cc1 | > 64 µg/mL | > 64 µg/mL | > 64 µg/mL | > 64 µg/mL | > 64 µg/mL | > 64 µg/mL | > 64 µg/mL | > 64 µg/mL | > 64 µg/mL | 
4 | Br.O=C(CCCCCCC[P+](c1ccccc1)(c1ccccc1)c1ccccc1)OC[C@H](NC(=O)C(Cl)Cl)[C@H](O)c1ccc([N+](=O)[O-])cc1 | 2 µg/mL | > 64 µg/mL | 2 µg/mL | > 64 µg/mL | 2 µg/mL | > 64 µg/mL | > 64 µg/mL | > 64 µg/mL | 2 µg/mL | 
5 | CN(C)c1ccc([P+](CCCCCCCCCC(=O)O)(c2ccc(N(C)C)cc2)c2ccc(N(C)C)cc2)cc1.[Br-] | 16 µg/mL | 32 µg/mL | 8 µg/mL | 16 µg/mL | 8 µg/mL | 2.1 µg/mL | 32 µg/mL | 32 µg/mL | 4 µg/mL | 
6 | Br.O=C(CCCCCCCCC[P+](c1ccc(Cl)cc1)(c1ccc(Cl)cc1)c1ccc(Cl)cc1)OC[C@H](NC(=O)C(Cl)Cl)[C@H](O)c1ccc([N+](=O)[O-])cc1 | 0.5 µg/mL | > 64 µg/mL | 0.5 µg/mL | > 64 µg/mL | 0.5 µg/mL | 16.4 µg/mL | > 64 µg/mL | > 64 µg/mL | 0.5 µg/mL | 
7 | Br.O=C(CCCCC[P+](c1ccccc1)(c1ccccc1)c1ccccc1)OC[C@H](NC(=O)C(Cl)Cl)[C@H](O)c1ccc([N+](=O)[O-])cc1 | 8 µg/mL | > 64 µg/mL | 16 µg/mL | > 64 µg/mL | 16 µg/mL | > 64 µg/mL | > 64 µg/mL | > 64 µg/mL | 8 µg/mL | 
8 | Br.O=C(CCCC[P+](c1ccccc1)(c1ccccc1)c1ccccc1)OC[C@H](NC(=O)C(Cl)Cl)[C@H](O)c1ccc([N+](=O)[O-])cc1 | 8 µg/mL | > 64 µg/mL | 16 µg/mL | > 64 µg/mL | 8 µg/mL | > 64 µg/mL | > 64 µg/mL | > 64 µg/mL | 8 µg/mL | 
9 | Br.O=C(CCCCCCCCC[P+](c1ccccc1)(c1ccccc1)c1ccccc1)O[C@H](c1ccc([N+](=O)[O-])cc1)[C@H](CO)NC(=O)C(Cl)Cl | 2 µg/mL | > 64 µg/mL | 1 µg/mL | > 64 µg/mL | 1 µg/mL | < 32 µg/mL | > 64 µg/mL | > 64 µg/mL | 1 µg/mL | 
10 | Br.O=C(CCCCCn1cc(C[P+](c2ccc(F)cc2)(c2ccc(F)cc2)c2ccc(F)cc2)nn1)OC[C@H](NC(=O)C(Cl)Cl)[C@H](O)c1ccc([N+](=O)[O-])cc1 | 16 µg/mL | > 64 µg/mL | 16 µg/mL | > 64 µg/mL | 16 µg/mL | > 64 µg/mL | > 64 µg/mL | > 64 µg/mL | 16 µg/mL | 
11 | Br.COc1cccc([P+](CCCCCCCCCC(=O)OC[C@H](NC(=O)C(Cl)Cl)[C@H](O)c2ccc([N+](=O)[O-])cc2)(c2cccc(OC)c2)c2cccc(OC)c2)c1 | 1 µg/mL | > 64 µg/mL | 1 µg/mL | 4 µg/mL | 2 µg/mL | 21.7 µg/mL | 16 µg/mL | > 64 µg/mL | 1 µg/mL | 
12 | O=C(O)CCCCCCCCC[P+](c1ccc(F)cc1)(c1ccc(F)cc1)c1ccc(F)cc1.[Br-] | > 64 µg/mL | > 64 µg/mL | > 64 µg/mL | > 64 µg/mL | > 64 µg/mL | > 64 µg/mL | > 64 µg/mL | > 64 µg/mL | > 64 µg/mL | 
13 | O=C(O)CCCCCCCCCCCCCCCCC[P+](c1ccccc1)(c1ccccc1)c1ccccc1.[Br-] | > 64 µg/mL | > 64 µg/mL | > 64 µg/mL | > 64 µg/mL | > 64 µg/mL | > 64 µg/mL | > 64 µg/mL | > 64 µg/mL | > 64 µg/mL | 
14 | Br.O=C(CCCCCCCCC[P+](c1ccccc1)(c1ccccc1)c1ccccc1)OC[C@H](NC(=O)C(Cl)Cl)[C@H](O)c1ccc([N+](=O)[O-])cc1 | 1 µg/mL | > 64 µg/mL | 1 µg/mL | > 64 µg/mL | 1 µg/mL | > 32 µg/mL | > 64 µg/mL | 32 µg/mL | 1 µg/mL | Activity [12]: Active; Activity [13]: Non-Toxic; Activity [14]: Active; Activity [15]: Dose-Dependent Effect; Activity [16]: inactive; Activity [17]: Non-Toxic; Activity [18]: Active; Activity [19]: Active; Activity [20]: 100%; Activity [21]: inactive; Activity [6]: Non-Toxic
15 | O=C(O)CCC[P+](c1ccccc1)(c1ccccc1)c1ccccc1.[Br-] | > 64 µg/mL | > 64 µg/mL | > 64 µg/mL | > 64 µg/mL | > 64 µg/mL | > 64 µg/mL | > 64 µg/mL | > 64 µg/mL | > 64 µg/mL | 
16 | O=C(O)CCCCCCCCC[P+](c1cccc(F)c1)(c1cccc(F)c1)c1cccc(F)c1.[Br-] | > 64 µg/mL | > 64 µg/mL | > 64 µg/mL | > 64 µg/mL | > 64 µg/mL | > 64 µg/mL | > 64 µg/mL | > 64 µg/mL | > 64 µg/mL | 
17 | O=C(O)CCCCCCC[P+](c1ccccc1)(c1ccccc1)c1ccccc1.[Br-] | > 64 µg/mL | > 64 µg/mL | > 64 µg/mL | > 64 µg/mL | > 64 µg/mL | > 64 µg/mL | > 64 µg/mL | > 64 µg/mL | > 64 µg/mL | 
